Experimental data from patent publication US20260159474A1, “Aminoindane Compounds and Compositions and Methods of Their Therapeutic Use” (Solvonis Therapeutics Ireland Holdings Limited, priority 2021, published 2026).
pIC50: −log10 of the molar value. Read-outs that look alike come from different tables or passages of the source.

Key:
hSERT = molecular target: T1, hSERT (Homo sapiens, UniProt P31645); assay: SERT uptake SPA in hSERT-CHO cells; format: cell-based; details: for IC50: read-out: SERT Uptake SPA (pIC50) (converted); for SERT/DAT Uptake Ratio: calculated as 1/SERT IC50:1/DAT IC50
T1 construct: expressed in transfected cells; host or cells: CHO (hSERT-CHO)
T1 sequence (P31645 whole entry): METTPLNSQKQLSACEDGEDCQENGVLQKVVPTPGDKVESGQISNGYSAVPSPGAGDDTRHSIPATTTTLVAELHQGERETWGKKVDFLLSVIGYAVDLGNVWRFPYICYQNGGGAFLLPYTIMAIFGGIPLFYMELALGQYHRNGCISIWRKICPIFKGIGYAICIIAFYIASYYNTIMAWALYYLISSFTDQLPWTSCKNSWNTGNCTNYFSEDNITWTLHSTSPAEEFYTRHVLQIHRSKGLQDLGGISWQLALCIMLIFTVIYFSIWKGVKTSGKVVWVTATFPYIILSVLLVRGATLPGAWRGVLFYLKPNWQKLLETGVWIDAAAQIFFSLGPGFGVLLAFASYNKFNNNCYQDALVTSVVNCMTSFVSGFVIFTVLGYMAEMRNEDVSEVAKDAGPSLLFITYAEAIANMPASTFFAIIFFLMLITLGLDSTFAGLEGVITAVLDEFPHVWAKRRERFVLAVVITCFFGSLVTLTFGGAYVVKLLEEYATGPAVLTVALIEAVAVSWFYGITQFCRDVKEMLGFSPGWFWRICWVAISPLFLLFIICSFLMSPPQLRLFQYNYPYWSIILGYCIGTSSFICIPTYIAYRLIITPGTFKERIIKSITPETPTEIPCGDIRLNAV
Procedure: Briefly, on experiment days, hDAT-CHO cells were detached using Versene and added at a density of approximately 300,000 cells/mL to the SPA Mixture, which contains the following components in Assay Buffer (20 mM HEPES, 145 mM NaCl, 5 mM KCl, 2 mM CaCl2), 1 mM MgCl2, 5.5 mM glucose, 0.01% Pluronic F127, pH 7.3): 0.75 mg/mL SPA Imaging beads (RPNQ0001, PerkinElmer), 10 μM pargyline and 80 nM of [3H]-dopamine (NET673, PerkinEImer). The SPA Mixture was added 20 μL/well to 384 well plates containing 0.1 μL/well of test compound in neat DMSO (11 points of 1:5 serial dilution, 0.5% DMSO final) or 0.1 μL of DMSO (total uptake) or 0.1 μL of the standard inhibitor indatraline (at 1 μM final concentration, as nonspecific uptake). Plates were sealed with a Top-seal A and read using a Microbeta counter (PerkinElmer) after 45 minutes of incubation at room temperature. […] The SPA Mixture was added 20 μL/well to 384 well plates containing 0.1 μL/well of test compound in neat DMSO (11 points of 1:5 serial dilution, 0.5% DMSO final), 0.1 μL of DMSO (total uptake), or 0.1 μL of the standard inhibitor indatraline (1 μM, nonspecific uptake). Plates were sealed with a Top-seal A and read using a Microbeta counter (PerkinElmer) after 120 minutes of incubation at room temperature.
For both tests, the raw experimental data (cpm) were elaborated for the determination of pIC50/IC50 values as % inhibition of specific uptake. Concentration-response curves of MDMA, MDDMA, citalopram and GBR-12909 were used as internal standards in all experiments, and the signal window was monitored in each plate performing Z′ calculations, as described in Zhang et al., J Biomol Screen.

CYP2D6 = molecular target: T2, CYP2D6 (Homo sapiens, UniProt P10635); assay: CYP450 inhibition, fluorescent probe substrate; format: in vitro ADME
T2 construct: host or cells: recombinant microsomes
T2 sequence (P10635 whole entry): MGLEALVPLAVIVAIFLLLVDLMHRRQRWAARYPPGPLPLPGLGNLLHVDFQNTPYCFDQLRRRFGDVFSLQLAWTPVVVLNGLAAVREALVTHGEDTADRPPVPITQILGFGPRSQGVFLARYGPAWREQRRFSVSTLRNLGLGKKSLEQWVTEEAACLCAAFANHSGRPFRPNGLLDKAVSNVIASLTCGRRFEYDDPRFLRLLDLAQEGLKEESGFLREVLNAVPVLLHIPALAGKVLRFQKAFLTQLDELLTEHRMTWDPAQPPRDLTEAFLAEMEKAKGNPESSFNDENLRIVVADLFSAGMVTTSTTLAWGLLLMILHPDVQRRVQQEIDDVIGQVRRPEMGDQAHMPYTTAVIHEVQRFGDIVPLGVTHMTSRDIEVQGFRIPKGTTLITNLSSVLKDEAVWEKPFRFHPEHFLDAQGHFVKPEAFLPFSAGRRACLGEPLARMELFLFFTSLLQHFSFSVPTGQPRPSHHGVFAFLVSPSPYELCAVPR
Procedure: (§1) Methods: Recombinant human CYP450 isoenzymes were used to metabolize pro-fluorescent probe substrates to fluorescent products. IC50 values determined from the effect of test compounds on the metabolism of these probe substrates were then used to determine inhibitory potency against CYP450 isoforms. The chemical reagents included:
(§2) The test system was based on a three-step procedure with a “mix and read” format, where reaction and reading were performed at 37° C. The assays described herein measure in vitro inhibitory effects (pIC50) of compounds on the human P450 isoforms (1A2, 2B6, 2C8, 2C9, 2C19, 2D6, 3A4) expressed in recombinant microsomes. Pro-fluorescent probe substrates were metabolized to fluorescent products by the enzymes. Fluorescence was measured in kinetic mode (1 read/minutes for 10 minutes), and the fluorescence rate was calculated.
(§3) Inhibition of the fluorescent signal resulting from P450 activation indicated inhibitory activity and facilitated calculation of the compound pIC50. A quality check was included in each compound plate, wherein the signal window was monitored by performing Z′ calculations ([…] ) and the antagonist potency of internal standards was within the pIC50±2SD range. Concentration response curves (CRCs) of compounds were run on two different test occasions (n 2) by preparing serial dilutions from the same compound stock solution.
(§4) To prepare the compound plate, test compounds serial dilutions 1 to 3 were performed from a 10 mM stock solution in DMSO by Biomek FX to generate 10 point CRC with the highest concentrations in columns 3 and 13.
(§5) 100% DMSO was placed in columns 1 and 2 and used for assay low controls. CYP inhibitor (10 mM miconazole solution in DMSO) was placed in columns 23 and 24 and served as an assay high controls. 1 μL copy plates were then stamped into V-bottom drug plates at a concentration that is 200 fold the final assay concentration. The copy plates were diluted prior to the experiment with assay buffer to reach 4 times the final assay concentration (2% w/v DMSO).
(§6) A reference compound (e.g., miconazole) was included in each compound plate in row A, column 3 and 13. The reference compound was diluted and stamped together with test compounds. The final concentrations of the 10 point CRCs of test compounds in the assay plate were 5.00E-05; 1.67E-05; 5.56E-06; 1.85E-06; 6.17E-07; 2.06E-07; 6.86E-08; 2.29E-08; 7.62E-09 and 2.54E-09, respectively. All solutions were prepared immediately before the assay.
(§7) Microsomes were added to the buffer prior to the substrate addition. The solution was carefully mixed without vortexing. 30 μL/well of the mixture was then transferred to the assay plate (384-well black plate) using a 16-channel pipette. For each P450 isoformn, a separate plate was prepared and labeled with a barcode. For fluorescence measurement, 10 μL/well of the test compounds were transferred from the compound plate to the assay plate using Biomek FX and the appropriate protocol. The assay plate was then incubated at 37° C. for 10 minutes on a shaker to allow for the interaction between compounds and enzymes.
(§8) 10 μL/well of the cofactor was then added to the assay plate using the Multidrop before placing the assay plate in the plate reader EnVision to measure fluorescence. The overall final DMSO concentration for the assay was 0.5%. Plates were read every minute for 10 minutes, according to a P450 isoform specific protocol, as shown below.
(§9) Regarding data analysis, inhibition is expressed as a percentage. […] Curve fitting and pIC50 estimations are carried out using a four-parameter logistic model in Morphit.

CYP2C19 = molecular target: T3, CYP2C19 (Homo sapiens, UniProt P33261); assay: CYP450 inhibition, fluorescent probe substrate; format: in vitro ADME
T3 construct: host or cells: recombinant microsomes
T3 sequence (P33261 whole entry): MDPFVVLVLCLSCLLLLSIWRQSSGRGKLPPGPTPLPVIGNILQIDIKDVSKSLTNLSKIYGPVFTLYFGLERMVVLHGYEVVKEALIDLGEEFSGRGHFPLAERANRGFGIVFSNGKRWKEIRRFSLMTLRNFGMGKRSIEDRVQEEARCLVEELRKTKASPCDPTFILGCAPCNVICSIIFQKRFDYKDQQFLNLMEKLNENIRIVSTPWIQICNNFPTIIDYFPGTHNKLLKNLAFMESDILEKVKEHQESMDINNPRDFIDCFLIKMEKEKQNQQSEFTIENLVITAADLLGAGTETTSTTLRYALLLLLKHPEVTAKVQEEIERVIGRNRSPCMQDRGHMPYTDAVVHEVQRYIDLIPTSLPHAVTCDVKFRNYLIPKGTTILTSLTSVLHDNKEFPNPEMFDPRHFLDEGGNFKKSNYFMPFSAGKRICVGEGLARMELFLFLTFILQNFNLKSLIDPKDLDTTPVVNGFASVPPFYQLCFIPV
Procedure: as §1, §2, §3, §4, §5, §6, §7, §8, §9

CYP1A2 = molecular target: T4, CYP1A2 (Homo sapiens, UniProt P05177); assay: CYP450 inhibition, fluorescent probe substrate; format: in vitro ADME
T4 construct: host or cells: recombinant microsomes
T4 sequence (P05177 1-516): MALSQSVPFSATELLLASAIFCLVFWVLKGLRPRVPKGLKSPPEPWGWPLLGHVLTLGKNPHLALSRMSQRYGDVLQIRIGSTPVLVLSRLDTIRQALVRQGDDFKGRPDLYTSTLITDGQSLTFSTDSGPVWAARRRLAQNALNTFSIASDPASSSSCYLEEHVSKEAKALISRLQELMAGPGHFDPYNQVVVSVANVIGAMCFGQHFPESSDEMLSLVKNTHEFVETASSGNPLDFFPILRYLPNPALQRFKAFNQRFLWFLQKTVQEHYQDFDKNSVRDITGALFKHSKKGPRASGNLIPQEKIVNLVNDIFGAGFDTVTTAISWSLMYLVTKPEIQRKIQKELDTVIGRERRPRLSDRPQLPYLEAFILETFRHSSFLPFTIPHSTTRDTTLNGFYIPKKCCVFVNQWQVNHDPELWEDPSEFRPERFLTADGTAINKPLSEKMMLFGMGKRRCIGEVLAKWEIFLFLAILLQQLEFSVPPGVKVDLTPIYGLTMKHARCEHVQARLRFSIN
Procedure: as §1, §2, §3, §4, §5, §6, §7, §8, §9

CYP2C9 = molecular target: T5, CYP2C9 (Homo sapiens, UniProt P11712); assay: CYP450 inhibition, fluorescent probe substrate; format: in vitro ADME
T5 construct: host or cells: recombinant microsomes
T5 sequence (P11712 whole entry): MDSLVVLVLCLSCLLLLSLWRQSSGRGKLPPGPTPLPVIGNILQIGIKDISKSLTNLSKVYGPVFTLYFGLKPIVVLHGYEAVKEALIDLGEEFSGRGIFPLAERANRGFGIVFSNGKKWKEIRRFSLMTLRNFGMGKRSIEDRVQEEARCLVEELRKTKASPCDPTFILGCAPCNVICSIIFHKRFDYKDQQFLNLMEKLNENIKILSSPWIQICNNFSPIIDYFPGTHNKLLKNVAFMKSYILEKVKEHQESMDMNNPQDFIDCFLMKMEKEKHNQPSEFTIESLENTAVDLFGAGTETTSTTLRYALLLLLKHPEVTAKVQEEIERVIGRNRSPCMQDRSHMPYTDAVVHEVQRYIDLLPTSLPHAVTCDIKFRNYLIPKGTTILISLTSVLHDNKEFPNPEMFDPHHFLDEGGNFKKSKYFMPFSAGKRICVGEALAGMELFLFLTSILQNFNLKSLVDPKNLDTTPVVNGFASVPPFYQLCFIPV
Procedure: as §1, §2, §3, §4, §5, §6, §7, §8, §9

CYP3A4 = molecular target: T6, CYP3A4 (Homo sapiens, UniProt P08684); assay: CYP450 inhibition, fluorescent probe substrate; format: in vitro ADME
T6 construct: purchased Life Technologies P2377; host or cells: Baculosomes
T6 sequence (P08684 whole entry): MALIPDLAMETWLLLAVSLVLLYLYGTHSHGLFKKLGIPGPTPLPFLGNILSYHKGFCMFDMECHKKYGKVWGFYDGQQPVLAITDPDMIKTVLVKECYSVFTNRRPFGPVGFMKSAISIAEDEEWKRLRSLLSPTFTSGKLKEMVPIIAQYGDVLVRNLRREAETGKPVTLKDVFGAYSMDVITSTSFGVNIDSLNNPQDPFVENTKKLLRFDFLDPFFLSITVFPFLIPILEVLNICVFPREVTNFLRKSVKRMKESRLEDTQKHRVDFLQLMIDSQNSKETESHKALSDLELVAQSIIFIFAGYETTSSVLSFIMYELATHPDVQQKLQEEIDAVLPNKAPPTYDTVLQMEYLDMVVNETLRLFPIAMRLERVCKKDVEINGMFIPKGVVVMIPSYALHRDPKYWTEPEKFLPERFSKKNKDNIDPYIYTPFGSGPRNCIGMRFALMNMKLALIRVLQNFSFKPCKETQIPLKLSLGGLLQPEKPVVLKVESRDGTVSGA
Procedure: as §1, §2, §3, §4, §5, §6, §7, §8
The CYP3A4 and CYP2C8 were assayed using the Vivid CYP3A4 Baculosomes, CYP2C8 Baculosomes and Vivid DBOMF Substrate (Life Technologies, cat. P2377, PV6138 and P2974 respectively), while 2B6 is tested by Vivid CYP2B6 Baculosomes and Vivid BOMCC Substrate (Life Technologies, cat. P3028 and P2975). Test compounds were prepared as specified above. […]

[1] = [3H]-serotonin uptake, hSERT-CHO cells
[2] = recombinant human isoenzyme, n=2, read-out: Inhibition of CYP2D6, IC50
[3] = recombinant human isoenzyme, n=2, read-out: Inhibition of CYP2C19, IC50
[4] = recombinant human isoenzyme, n=2
[5] = recombinant human isoenzyme, n=2, read-out: Inhibition of CYP1A2, IC50
[6] = recombinant human isoenzyme, n=2, read-out: Inhibition of CYP2C9, IC50
[7] = recombinant human isoenzyme, n=2, read-out: Inhibition of CYP3A4, IC50

SMILES	IC50 (hSERT; [1])	SERT/DAT Uptake Ratio (hSERT)	pIC50 (CYP2D6; [2])	pIC50 (CYP2C19; [3])	Inhibition of CYP1A2, IC50 (CYP1A2; [4])	pIC50 (CYP1A2; [5])	pIC50 (CYP2C9; [6])	pIC50 (CYP3A4; [7])	SERT Uptake SPA (pIC50) (hSERT; [1])	pIC50 (hSERT)	pIC50 (CYP2D6)	pIC50 (CYP2C19)	pIC50 (CYP1A2)	pIC50 (CYP2C9)	pIC50 (CYP3A4)	Inhibition of CYP2C9, IC50 (CYP2C9; [4])
COC(=O)c1cc2c(cc1OC)CC(N)C2 (stereo not shown) [CMP-401]	3.98 µM	22	< 4.30	< 4.30	displayed inhibitory activity at CYP1A2	5.92	< 4.30	< 4.30								
COC(=O)COc1ccc2c(c1)CC(N)C2 (stereo not shown) [CMP-402]	63.1 µM	1.4	< 4.30	< 4.30	displayed inhibitory activity at CYP1A2	5.97	< 4.30	< 4.30								
COC(=O)c1ccc2c(c1)CC(N)C2 (stereo not shown) [CMP-405, 2-aminoindane-5-methylcarboxylate]	7.94 µM		4.64	< 4.30	displayed inhibitory activity at CYP1A2	6.21	< 4.30	< 4.30								
CNC(C)Cc1ccc2c(c1)OCO2 (stereo not shown) [MDMA]		2.1	5.80	< 4.30		< 4.30	< 4.30	< 4.30	6.0							
COc1ccc2c(c1)CC(N)C2 (stereo not shown) [MEAI, 5-methoxy-2-aminoindane]		9								5.40	4.43	< 4.30	< 4.30	< 4.30	< 4.30	
COc1cc2c(cc1C)CC(N)C2 (stereo not shown) [MMAI, 5-methoxy-6-methyl-2-aminoindane]		52			displayed inhibitory activity at CYP1A2					6.00	4.47	< 4.30	5.68	4.45	< 4.30	found to inhibit CYP2C9
